According to patent US6503721B2, “Screen for compounds with affinity for nucleic acids” (Anadys Pharmaceuticals, Inc., priority 1995, dated 2003):

What was measured:
AB-RNA [1] = test: Hybrid capture on streptavidin-coated paramagnetic beads (AB-RNA : biotinylated oligonucleotide RBS-96-60); format: binding
Description: SA coated paramagnetic beads: The washing step required when using SA-beads can be facilitated by using paramagnetic-SA coated beads (PMP-SA). These beads are commercially available (Promega, Madison, Wis.) and can be concentrated and held by a magnet. Positioning the magnet under the plate during washing steps concentrates and retains the beads at the bottom of the well during the washing procedure thus preventing loss of beads and allowing faster operation. An example of the use of this method is described in Example 2 below. The [^32P]-labelled ATP-binding RNA described in Example 1 above (AB-RNA) was heat denatured at 90° C. for 2 min in binding buffer (50 mM Tris pH 7.5, 200 mM NaCl, and 10 mM MgCl2) and chilled on ice for 2 min. 37.5 μl aliquots of the heat denatured AB-RNA were then mixed with 12.5 μl of a solution containing 12.5 pmol of the 5′-biotinylated oligonucleotide RBS-96-60 (having a nucleotide sequence identical to RBS-87-8A described in Example 1 above) and varying amounts of ATP or UTP. After a brief incubation at room temperature, the mixture was transferred into 96-well plates containing 0.5 mg paramagnetic beads coated with streptavidin (PMP-SA) (Promega, Madison, Wis.). Plates were incubated at room temperature for 15 min to allow binding. […] [^32P]-labelled AB-RNA bound to the beads was then quantitated by Cerenkov counting in a Microbetta LSC-counter (Wallac).

AB-RNA [2] = test: SCAN nitrocellulose filter binding assay, AB-RNA and biotinylated oligonucleotide 67B
Description: Adsorption to nitrocellulose filters: This embodiment takes advantage of the fact that most proteins tightly adsorb to nitrocellulose filters. When using a biotinylated oligonucleotide and a labelled target RNA, free SA or a SA derivative such as SA:alkaline phosphatase conjugate (SA:AP), SA:β-galactosidase (SA:BG), or other SA-conjugate or fusion protein, is added to the reaction to allow binding to the biotin moiety in the oligonucleotide. Subsequently, the reaction is filtered through 96-well nitrocellulose filter plates (Millipore, Bedford, Mass., HATF or NC). Labeled target RNA hybridized to the biotinylated oligonucleotide is retained in the filter through the adsorption of SA or its derivative to the filter, while unhybridized RNA passes through. […] Therefore, the use of SA fusion proteins or conjugates is preferred. An example of the use of this method is described in Example 3 below. SCAN reactions containing 100 nM radiolabeled AB-RNA and 250 nM biotinylated oligonucleotide 67B were incubated with increasing amounts of ATP or UTP as test ligands. In the absence of test ligand, 70% of AB-RNA was retained on NC-filters. Inhibition of RNA retention on NC-filters Inhibition of RNA retention on NC-filters (% inhibtion) was obtained as (1−(R/R0)×100), where R0 is retention without test ligand and R is retention with test ligand. […]

HIV RRE RNA = test: SCAN nitrocellulose filter binding assay, RRE RNA and biotinylated complementary oligonucleotide; details: heterologous RNA target, FIG. 17
Description: Adsorption to nitrocellulose filters: This embodiment takes advantage of the fact that most proteins tightly adsorb to nitrocellulose filters. When using a biotinylated oligonucleotide and a labelled target RNA, free SA or a SA derivative such as SA:alkaline phosphatase conjugate (SA:AP), SA:β-galactosidase (SA:BG), or other SA-conjugate or fusion protein, is added to the reaction to allow binding to the biotin moiety in the oligonucleotide. Subsequently, the reaction is filtered through 96-well nitrocellulose filter plates (Millipore, Bedford, Mass., HATF or NC). Labeled target RNA hybridized to the biotinylated oligonucleotide is retained in the filter through the adsorption of SA or its derivative to the filter, while unhybridized RNA passes through. […] Therefore, the use of SA fusion proteins or conjugates is preferred. An example of the use of this method is described in Example 3 below.
The target RNA was an RNA molecule containing the binding site for the HIV Rev protein (Rev Responsive Element, RRE; 5′-GAAUACUAUGGGCGCAGCGUCAAUGACGCUGACGGUACAGGCCAGACAAUUAUUGUCUGGUAUAGU-3′- SEQ ID NO:2) which had been labelled with 32P as described in Example 1 above. […] The filtrate was further washed with 400 μl of the same buffer and the amount of RRE retained in the filter was determined by liquid scintillation counting. […]

AB RNA [3] = test: SCAN assay under equilibrium conditions (dissociation of pre-formed AB RNA:oligonucleotide complexes); format: binding; details: 100 μM ATP, 20 nM AB RNA, 100 nM oligonucleotide
Description: A screening assay having this configuration has the advantage of removing time constraints for various steps in the assay. In addition, thermodynamic parameters associated with ligand binding can be more easily derived from the results of the assay. Using a series of oligonucleotides of various length and target sites comprising AB RNA, a group of oligonucleotides has been identified that fully equilibrate with ATP (an example is shown in FIG. 20, top panel). The oligonucleotide used is complementary to the sequence shown in bold-faced letters (FIG. 20, top panel). Target RNA:oligonucleotide complexes were pre-formed by incubated a solution containing 100 nM AB RNA and 500 nM oligonucleotide for 2 h at 25° C. Dissociation was initiated by diluting the reaction 5-fold in the presence or absence of 100 μM ATP (resulting in final concentrations of AB RNA, 20 nM; oligonucleotide, 100 nM; ATP, 100 μM). Binding of hybrids to nitrocellulose filters was performed as described above.

AB RNA [4] = test: UV absorbance (260 nM) thermal melting of AB RNA; format: binding
Description: The experiment described below was performed to monitor the stabilization of an RNA structure upon ligand binding. In this experiment, absorbance at 260 nm was monitored as the temperature of the sample was increased. The increase in temperature causes the RNA to unfold, thereby allowing individual bases to absorb more ultraviolet light.

AB-RNA-F = test: Fluorescence SCAN assay, fluorescein-labelled AB-RNA-F and unlabelled oligonucleotide 67B; format: binding; details: for effect on fluorescence increase: FIG. 28B
Description: B. Experimental results: While developing a SCAN assay based on FET between 3′-fluorescein labeled AB-RNA (AB-RNA-F) and a 5′-rhodamine labeled oligonucleotide, it was unexpectedly observed in a control experiment that a substantial increase in fluorescein emission at 535 nm occurred upon addition of an oligonucleotide carrying no fluorescent labels (FIG. 28A). Reactions containing 50 mM Tris pH 7.5, 200 mM NaCl, 10 mM MgCl2, and 60 nM AB-RNA-F were monitored at 535 nm emission (485 nm excitation) in a CytoFluor II fluorescence multi-well plate reader (PerSeptive Biosystems, Framingham,Mass.) for increasing times after the addition of oligonucleotide 67B. Because of the high reproducibility and sensitivity of fluorescence spectrophotometers, a 2-fold increase in fluorescence represents more that sufficient change in signal to use it as a sensitive assay. Therefore, the effect of ATP, GTP and UTP was tested in SCAN reactions containing AB-RNA-F and the unlabeled oligonucleotide 67B (FIG. 28B).

AB-RNA [5] = test: Gel shift assay: hybridization of radiolabelled AB-RNA to complementary DNA oligonucleotide RBS-87-8A; format: binding; details: 30 μM ligand
Description: A gel shift protocol, though nominally a low-throughput method, is an important tool for the initial selection of the assay configuration for oligonucleotide-based methods to be used with each particular target RNA. Typically, the target RNA is transcribed in vitro, using as template a DNA that contains the sequence for the T7-RNA polymerase promoter followed by a region encoding the target RNA, and [^32P]-UTP to produce radiolabelled RNA. Conditions for the T7 RNA polymerase transcription reaction using oligonucleotide templates have been described by Milligan et al., Nuc. Acids Res., 15: 8783, 1987. The [^32P]-labelled target RNA is optionally heat denatured at 90° C. for 2 min and chilled on ice for 2 min, after which aliquots are incubated in the absence and presence of test ligands and increasing concentrations of a complementary oligonucleotide. The reaction mixtures are then resolved in polyacrylamide native gels containing or lacking the test ligands.
AB-RNA was transcribed using as template the DNA oligonucleotide RBS-87-8A, (5′-GGAACCTTGCCGGCACCGAAGTGCCGCAGTTTCTTCCCAAGGTTCCTATAGTGAGTCGTATTA-3′-SEQ ID NO:1), which contains the sequence for the T7-RNA polymerase promoter followed by a region encoding AB-RNA. [32P]-labelled AB-RNA was obtained by including [32P]-UTP in the transcription reaction. […]

Row | competition with the oligonucleotide for binding to AB-RNA (AB-RNA [5]) | SMILES | IC50 (AB-RNA [1]; PMP-SA beads, room temperature, read-out: ligand concentration reducing the amount of hybrids formed by 50%) [mM] | IC50 (AB-RNA [2]; 100 nM AB-RNA, 250 nM oligonucleotide 67B, read-out: ligand concentration inhibiting AB-RNA retention on NC-filters by 50%) [mM] | specificity factor ATP versus UTP (AB-RNA [2]; ratio of concentrations for 50% inhibition) [fold] | effect on RRE based SCAN reactions (HIV RRE RNA) | inhibition of oligo:RNA complex (AB RNA [3]) | temperature of new transition in first derivative of absorbance, seen only with ligand (AB RNA [4]; absorbance at 260 nm, FIG. 21) [°C] | effect of ligand on RNA structure (AB RNA [4]; thermal melting) | IC50 (AB-RNA-F; 60 nM AB-RNA-F, emission 535 nm, read-out: IC50 for inhibition of fluorescence increase) [mM] | effect on amount of hybrids bound to PMP-SA beads (AB-RNA [1]; increasing ligand concentrations) | effect on fluorescence increase (AB-RNA-F)
1 |  | Nc1ncnc2c1ncn2[C@@H]1O[C@H](COP(=O)(O)OP(=O)(O)OP(=O)(O)O)[C@@H](O)[C@H]1O [ATP] | 0.025 | 5 | 100 | no effect | approximately 60% | 40 | stabilizes the RNA structure | 5 |  | 
2 | unable to compete | O=c1ccn([C@@H]2O[C@H](COP(=O)(O)OP(=O)(O)OP(=O)(O)O)[C@@H](O)[C@H]2O)c(=O)[nH]1 [UTP] |  |  |  |  |  |  |  |  | no effect | some effect at much higher concentrations
3 |  | Nc1nc2c(ncn2[C@@H]2O[C@H](COP(=O)(O)OP(=O)(O)OP(=O)(O)O)[C@@H](O)[C@H]2O)c(=O)[nH]1 [GTP] |  |  |  |  |  |  |  |  |  | no effect at all
